# Experimental data as given in US20040023972A1, “Use of substituted imidazo[1,2-a]-pyridin-, -pyrimidin-and-pyrazin-3-yl-amine derivatives in the preparation of medicaments for inhibiting NOS” (Gruenenthal GmbH, priority 2000, published 2004).
# Biological target: T1, NO synthase (Rattus norvegicus, UniProt P29476)
# T1 construct: the supernatant was then removed by decantation and frozen in portions at −80° C; from tissue; host or cells: rat cerebellum, 20,000 g supernatant of homogenate
# Assay: HTS-NOS assay (NOS assay): conversion of radioactive arginine, cation-exchanger filter plate
# Type: biochemical
# Settings: 10 μM
# How it was run: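 Rat cerebellum supernatant as NOS source, incubated with radiolabelled arginine plus cofactors including NADPH at 25 °C for 5-60 min depending on enzyme activity. Unconverted arginine was trapped on a cation-exchange filter plate, citrulline washed out, and bound arginine counted by scintillation; % inhibition versus no-compound reactions.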
row,Compound,HTS-NOS assay: % inhibition (10 μM)
1,"[C-]#[N+]CCCCCCN(C(C)=O)c1c(-c2cccnc2)nc2cc(C)cc(C)n12 [Example 232, {6-[acetyl-(5,7-dimethyl-2-pyridin-3-yl-imidazo[1,2-a]pyridin-3-yl)-amino]-hexyl}-methylidyne-ammonium]",59%
2,"C#[N+]CCCCCCN(C(C)=O)c1c(-c2ccccc2OC)nc2ccc([N+](=O)[O-])cn12 [Example 238, (6-{acetyl-[2-(2-methoxy-phenyl)-6-nitro-imidazo[1,2-a]pyridin-3-yl]-amino}-hexyl)-methylidyne-ammonium]",52%
3,"C#[N+]CCCCCCN(C(C)=O)c1c(-c2ccccc2OC)nc2cc(C)cc(C)n12 [Example 240, (6-{acetyl-[2-(2-methoxy-phenyl)-5,7-dimethyl-imidazo[1,2-a]pyridin-3-yl]-amino}-hexyl)-methylidyne-ammonium]",61%
4,"[C-]#[N+]CCCCCCN(C(C)=O)c1c(-c2cccnc2)nc2cc(C)ccn12 [Example 241, {6-[acetyl-(7-methyl-2-pyridin-3-yl-imidazo[1,2-a]pyridin-3-yl)-amino]-hexyl}-methylidyne-ammonium]",62%
5,"CC(=O)OCc1ccc(-c2nc3cc(C)cc(C)n3c2N(C(C)=O)c2c(C)cccc2C)o1 [Example 243, acetic acid 5-{3-[acetyl-(2,6-dimethyl-phenyl)-amino]-5,7-dimethyl-imidazo[1,2-a]pyridin-2-y}-furan-2-yl methyl ester]",62%
6,"CC(=O)N(c1c(-c2ccccc2C(F)(F)F)nc2ccccn12)C(C)(C)C [Example 245, N-tert-butyl-N-[2-(2-trifluorO-methyl-phenyl)-imidazo[1,2-a]pyridin-3-yl]-acetamide]",56%

# Same assay, conditions: read-out: HTS-NOS assay: % inhibition (10 μM)
row,Compound,inhibition at 10 µM
1,"CC(=O)N(c1c(C2CCCCC2)nc2cc(C)cc(C)n12)C(C)(C)CC(C)(C)C [Example 219, N-(2-cyclohexyl-5,7-dimethyl-imidazo[1,2-a]pyridin-3-yl)-N-(1,1,3,3-tetramethyl-butyl)-acetamide]",62%
2,"CSc1ccc(-c2nc3ncccn3c2N(C(C)=O)C(C)(C)C)s1 [Example 221, N-tert-butyl-N-[2-(5-methylsulfanyl-thiophen-2-yl)-imidazo[1,2-a]pyrimidin-3-yl]-acetamide]",54%
3,"CC(=O)N(c1c(-c2sccc2Br)nc2ccc(C)cn12)C1CCCCC1 [Example 224, N-[2-(3-bromo-thiophen-2-yl)-6-methyl-imidazo[1,2-a]pyridin-3-yl]-N-cyclohexyl-acetamide]",53%
4,"CC(=O)N(c1c(-c2ccc(C(=O)O)s2)nc2ccccn12)C1CCCCC1 [Example 229, 5-[3-(acetyl-cyclohexyl-amino)-imidazo[1,2-a]pyridin-2-yl]-thiophene-2-carboxylic acid]",59%
5,"CC(=O)N(c1c(-c2ccc(C(=O)O)o2)nc2c(C)cccn12)C(C)(C)CC(C)(C)C [Example 230, 5-{3-[acetyl-(1,1,3,3-tetramethyl-butyl)-amino]-8-methyl-imidazo[1,2-a]pyridin-2-yl}-furan-2-carboxylic acid]",52%
6,"CCCCN(C(C)=O)c1c(-c2ccccn2)nc2c(C(=O)O)cccn12 [Example 231, 3-(acetyl-butyl-amino)-2-pyridin-2-yl-imidazo[1,2-a]pyridine-8-carboxylic acid]",52%
7,"CSc1ccc(-c2nc3cnccn3c2N(C(C)=O)C(C)(C)C)s1 [Example 233, N-tert-butyl-N-[2-(5-methylsulfanyl-thiophen-2-yl)-imidazo[1,2-a]pyrazin-3-yl]-acetamide]",53%
8,"CSc1ccc(-c2nc3cnccn3c2N(C(C)=O)C(C)(C)CC(C)(C)C)s1 [Example 235, N-[2-(5-methylsulfanyl-thiophen-2-yl)-imidazo[1,2-a]pyrazin-3-yl]-N-(1,1,3,3-tetramethyl-butyl)-acetamide]",58%
9,"CC(=O)N(c1c(-c2ccc(C(=O)O)o2)nc2nc(C)ccn12)C(C)(C)CC(C)(C)C [Example 248, 5-{3-[acetyl-(1,1,3,3-tetramethyl-butyl)-amino]-7-methyl-imidazo[1,2-a]-pyrimidin-2-yl}-furan-2-carboxylic acid]",52%

# The remaining lines, values ahead:
row,inhibition at 10 µM,Compound
1,68%,"CC(=O)N(c1c(C)cccc1C)c1c(C(C)(C)C)nc2cc(C)ccn12 [Example 212, N-(2-tert-butyl-7-methyl-imidazo[1,2-a]pyridin-3-yl)-N-(2,6-dimethyl-phenyl)-acetamide]"
2,69%,"COc1cc(-c2nc3c(C)cc(Br)cn3c2N(C(C)=O)c2c(C)cccc2C)ccc1OC(C)=O [Example 213, acetic acid 4-{3-[acetyl-(2,6-dimethyl-phenyl)-amino]-6-bromo-8-methyl-imidazo[1,2-a]pyridin-2-yl}-2-methoxy-phenyl ester]"
3,56%,"CC(=O)N(c1c(-c2ccc(C3OCCO3)o2)nc2cc(C)ccn12)C(C)(C)C [Example 214, N-tert-butyl-N-[2-(5-[1,3]dioxolan-2-yl-furan-2-yl)-7-methyl-imidazo[1,2-a]-pyridin-3-yl]-acetamide]"
4,50%,"CC(=O)N(c1c(-c2cc3ccccc3o2)nc2cc(C)ccn12)C(C)(C)CC(C)(C)C [Example 216, N-(2-benzofuran-2-yl-7-methyl-imidazo[1,2-a]pyridin-3-yl)-N-(1,1,3,3-tetramethyl-butyl)-acetamide]"
5,63%,"CC(=O)N(c1c(-c2cc3ccccc3o2)nc2cc(C)cc(C)n12)C(C)(C)CC(C)(C)C [Example 217, N-(2-benzofuran-2-yl-5,7-dimethyl-imidazo[1,2-a]pyridin-3-yl)-N-(1,1,3,3-tetramethyl-butyl)-acetamide]"
6,60%,"CC(=O)N(c1c(-c2ccc(C(=O)O)s2)nc2ccccn12)C(C)(C)C [Example 218, 5-[3-(acetyl-tert-butyl-amino)-imidazo[1,2-a]pyridin-2-yl]-thiophene-2-carboxylic acid]"
7,61%,"CC(=O)N(c1c(-c2ccc(C)o2)nc2ccccn12)C(C)(C)C [Example 220, N-tert-butyl-N-[2-(5-methyl-furan-2-yl)-imidazo[1,2-a]pyridin-3-yl]-acetamide]"
8,53%,"CC(=O)N(c1c(-c2cc(C)c(C)o2)nc2cccc(C)n12)C(C)(C)CC(C)(C)C [Example 222, N-[2-(4,5-dimethyl-furan-2-yl)-5-methyl-imidazo[1,2-a]pyridin-3-yl]-N-(1,1,3,3-tetramethyl-butyl)-acetamide]"
9,62%,"CCCCN(C(C)=O)c1c(-c2ccc(Cl)cc2Cl)nc2ncccn12 [Example 223, N-butyl-N-[2-(2,4-dichloro-phenyl)-imidazo[1,2-a]pyrimidin-3-yl]-acetamide]"
10,55%,"CC(=O)N(c1c(C)cccc1C)c1c(-c2ccc(C(=O)O)s2)nc2ccc(C)cn12 [Example 225, 5-{3-[acetyl-(2,6-dimethyl-phenyl)-amino]-6-methyl-imidazo[1,2-a]pyridin-2-yl}-thiophene-2-carboxylic acid]"
11,62%,"CCCCN(C(C)=O)c1c(-c2cccc(OC)c2OC)nc2cc(C)ccn12 [Example 226, N-butyl-N-[2-(2,3-dimethoxy-phenyl)-7-methyl-imidazo[1,2-a]pyridin-3-yl]-acetamide]"
12,54%,"CC(=O)N(c1c(-c2cccc(Cl)c2Cl)nc2ccccn12)C(C)(C)C [Example 227, N-tert-butyl-N-[2-(2,3-dichloro-phenyl)-imidazo[1,2-a]pyridin-3-yl]-acetamide]"
13,53%,"CCCc1cccc2nc(-c3ccco3)c(N(C(C)=O)C(C)(C)CC(C)(C)C)n12 [Example 228, N-(2-furan-2-yl-5-propyl-imidazo[1,2-a]pyridin-3-yl)-N-(1,1,3,3-tetramethylbutyl)-acetamide]"
14,58%,"CC(=O)N(c1c(-c2ccc(C(=O)O)s2)nc2cccc(C)n12)C1CCCCC1 [Example 234, 5-[3-(acetyl-cyclohexyl-amino)-5-methyl-imidazo[1,2-a]pyridin-2-yl]-thiophene-2-carboxylic acid]"
15,58%,"CC(=O)N(c1c(C)cccc1C)c1c(-c2cccc(Cl)c2Cl)nc2cccc(C)n12 [Example 236, N-[2-(2,3-dichloro-phenyl)-5-methyl-imidazo[1,2-a]pyridin-3-yl]-N-(2,6-dimethyl-phenyl)-acetamide]"
16,55%,"CCCCN(C(C)=O)c1c(-c2ccccc2OC)nc2ccccn12 [Example 237, N-butyl-N-[2-(2-methoxy-phenyl)-imidazo[1,2-a]pyridin-3-yl]-acetamide]"
17,52%,"CC(=O)N(c1c(C)cccc1C)c1c(-c2cc3ccccc3o2)nc2cc(C)ccn12 [Example 239, N-(2-benzofuran-2-yl-7-methyl-imidazo[1,2-a]pyridin-3-yl)-N-(2,6-dimethylphenyl)-acetamide]"
18,58%,"CC(=O)N(c1c(-c2ccc(C)cc2)nc2ccc(C)cn12)C(C)(C)CC(C)(C)C [Example 242, N-(6-methyl-2-p-tolyl-imidazo[1,2-a]pyridin-3-yl)-N-(1,1,3,3-tetramethyl-butyl)-acetamide]"
19,50%,"COC(=O)CN(C(C)=O)c1c(-c2cccc(O)c2)nc2ccc(C)cn12 [Example 244, {acetyl-[2-(3-hydroxy-phenyl)-6-methyl-imidazo[1,2-a]pyridin-3-yl]-amino}-acetic acid methyl ester]"
20,55%,"CCCCN(C(C)=O)c1c(-c2ccc(F)cc2Cl)nc2ccccn12 [Example 246, N-butyl-N-[2-(2-chloro-4-fluoro-phenyl)-imidazo[1,2-a]pyridin-3-yl]-acetamide]"
21,56%,"CC(=O)N(c1c(C)cccc1C)c1c(-c2ccc(Cl)cc2Cl)nc2ccccn12 [Example 247, N-[2-(2,4-dichloro-phenyl)-imidazo[1,2-a]pyridin-3-yl]-N-(2,6-dimethyl-phenyl)-acetamide]"
